Assay [1] concerns the target CDK2/CyclinE (Homo sapiens, UniProt P24941). The experiment in a line: CDK2/CyclinE Flashplate assay, 96-well format, biotinylated-Rb peptide substrate. The class given is biochemical. As to the method:
This is a CDK2/CyclinE kinase assay in a 96-well Streptavidin-coated Flashplate with a biotinylated-Rb peptide substrate.
(§1) Each point is tested in duplicate
Biotinylated-Rb: Biotin-[…]-OH
• 1. Prepare substrate: 1 mg/ml solution made fresh in PBS. • 2. Add 4 μg per well to the Flashplate. • 3. Incubate for 2 hours at RT. • 4. From 10 mM inhibitor stocks in DMSO, make 1 mM, 300 μM, 100 μM, 30 μM and 10 μM series of dilution in DMSO. • 5. Was the Flashplate 3 times with 300 μl PBS to remove unbound peptide substrate. • 6. Add the CDK2/CyclinE kinase: 200 ng per well, in a volume of 90 μl in kinase buffer (except for “no enzyme” control wells). • 7. Add 1 μl per well of inhibitor to test 10 μM, 3 μM, 1 μM, 0.3 μM and 0.1 μM in final concentration per 100 μl in each well. • 8. Shake gently the Flashplate 1 minute. • 9. Incubate 30 minutes on wet ice. • 10. Initiate the reaction with 10 μl kinase buffer containing 1 μM final cold ATP and 1 μCi final ^33P-ATP per well. • 11. Shake gently the Flashplate 1 minute. • 12. Incubate 45 minutes at RT (no shaking). • 13. Wash the Flashplate 3 times with 300 μl PBS
14. Count to detect the incorporation of ^33P-ATP by the kinase to the Rb phosphorylation site.

Assay [2] has as its target CDK4/CyclinD1 (Homo sapiens, UniProt P11802). The assay is described as follows: CDK4/CyclinD1 Flashplate assay, 96-well format, biotinylated-Rb peptide substrate. The class given is biochemical. As to the method:
This is a CDK4/CyclinD1 kinase assay in a 96-well Streptavidin-coated Flashplate with a biotinylated-Rb peptide substrate.
as §1
Biotinylated-Rb: Biotin-[…]
• 1. Prepare substrate: 1 mg/ml solution made fresh in PBS. • 2. Add 100 μg per well to the Flashplate. • 3. Incubate for 2 hours at RT. • 4. From 10 mM inhibitor stocks in DMSO, make 1 mM, 300 μM, 100 μM, 30 μM and 10 μM series of dilution in DMSO. • 5. Wash the Flashplate 3 times with 300 μl PBS to remove unbound peptide substrate. • 6. Add the CDK4/CyclinD1 kinase: 70 ng per well, in a volume of 90 μl in kinase buffer (except for “no enzyme” control wells). • 7. Add 1 μl^1 per well of inhibitor to test 10 μM, 3 μM, 1 μM, 0.3 μM and 0.1 μM in final concentration per 100 μl in each well. • 8. Shake gently the Flashplate 1 minute. • 9. Incubate 30 minutes on wet ice. • 10. Initiate the reaction with 10 μl kinase buffer containing 1 μM final cold ATP and 1 μCi final ^33P-ATP per well. • 11. Shake gently the Flashplate 1 minute. • 12. Incubate 45 minutes at RT (no shaking). • 13. Wash the Flashplate 3 times with 300 μl PBS • 14. Count to detect the incorporation of ^33P-ATP by the kinase to the Rb phosphorylation site.

Sequence of CDK4/CyclinD1 (P11802 whole entry, species assumed): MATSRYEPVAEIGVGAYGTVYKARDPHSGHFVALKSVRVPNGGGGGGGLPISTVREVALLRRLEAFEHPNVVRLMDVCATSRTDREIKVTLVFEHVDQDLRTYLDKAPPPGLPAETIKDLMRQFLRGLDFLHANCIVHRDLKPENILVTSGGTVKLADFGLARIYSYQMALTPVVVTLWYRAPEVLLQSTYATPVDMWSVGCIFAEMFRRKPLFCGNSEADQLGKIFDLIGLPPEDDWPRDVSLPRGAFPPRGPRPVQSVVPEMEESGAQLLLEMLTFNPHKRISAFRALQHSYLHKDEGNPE
Sequence of CDK4/CyclinD1 (P24385 whole entry partner, species assumed): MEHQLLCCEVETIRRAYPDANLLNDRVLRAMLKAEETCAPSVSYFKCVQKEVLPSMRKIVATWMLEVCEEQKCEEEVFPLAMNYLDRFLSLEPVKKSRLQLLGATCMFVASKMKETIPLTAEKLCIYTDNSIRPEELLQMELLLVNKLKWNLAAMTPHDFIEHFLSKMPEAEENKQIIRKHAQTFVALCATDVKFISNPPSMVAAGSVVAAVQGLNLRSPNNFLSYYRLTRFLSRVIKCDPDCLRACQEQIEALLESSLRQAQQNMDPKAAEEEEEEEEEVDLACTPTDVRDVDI

Broadly, the IC50 is the midpoint of a concentration-inhibition curve. Higher therefore signals weaker potency. As to `COC(=O)Nc1nc2cc(OS(=O)(=O)c3ccc(NCc4ccccn4)cc3)ccc2[nH]1` [Example 5, Methyl-5-(4-[2-pyridylmethyl]aminophenylsulfonyloxy) benzimidazole-2-carbamate], the values for the IC50 in assay [1] and in assay [2] were 2200 nM and 1120 nM, respectively.

As to `CCNc1ccc(S(=O)(=O)Oc2ccc3[nH]c(NC(=O)OC)nc3c2)cc1` [Example 6, Methyl-5-(4-ethylaminophenylsulfonyloxy) benzimidazole-2-carbamate], the half-maximal inhibitory concentration (IC50) in assay [1] was 300 nM; in assay [2], 840 nM. In the case of `COC(=O)Nc1nc2cc(OS(=O)(=O)c3ccc(NCC(=O)O)cc3)ccc2[nH]1` [Example 7, Methyl-5-(4-[N-Glycinyl]-phenylsulfonyloxy) benzimidazole-2-carbamate], the 50% inhibitory concentration (IC50) amounted to 2000 nM in assay [1] and 470 nM in assay [2]. For `COC(=O)Nc1nc2cc(OS(=O)(=O)c3ccc(NC(C)C)cc3)ccc2[nH]1` [Example 10, Methyl-5-(4-isopropylaminophenylsulfonyloxy) benzimidazole-2-carbamate] the same measures were 800 nM and 700 nM. For `CN(C)CCNC(=O)Nc1nc2cc(OS(=O)(=O)c3ccc(NC4CCCC4)cc3)ccc2[nH]1` [Example 44, 4-Cyclopentylamino-benzenesulfonic acid 2-[3-(2-dimethylamino-ethyl)-ureido]-1H-benzoimidazol-5-yl ester], the IC50 in assay [1] is 130 nM. Still for that read-out and setting: to `O=C(NCc1cccnc1)Nc1nc2cc(OS(=O)(=O)c3ccc(-n4ccnc4)cc3)ccc2[nH]1` [Example 57-j, 4-Imidazol-1-yl-benzenesulfonic acid 2-(3-pyridin-3-ylmethyl-ureido)-1H-benzoimidazol-5-yl ester] belongs 100 nM; to `O=C(NCc1ccccc1F)Nc1nc2cc(OS(=O)(=O)c3ccc(NC4CCCC4)cc3)ccc2[nH]1` [Example 58-h, 4-Cyclopentylamino-benzenesulfonic acid 2-[3-(2-fluoro-benzyl)-ureido]-1H-benzoimidazol-5-yl ester], 100 nM; to `COC(=O)Nc1nc2cc(OS(=O)(=O)c3ccc(-c4ccon4)s3)ccc2[nH]1` [Example 62-c, 5-Isoxazol-3-yl-thiophene-2-sulfonic acid 2-methoxycarbonylamino-1H-benzoimidazol-5-yl ester], 800 nM. For `COC(=O)Nc1nc2cc(OS(=O)(=O)c3cccc(OC(F)(F)F)c3)ccc2[nH]1` [Example 62-f, 3-Trifluoromethoxy-benzenesulfonic acid 2-methoxycarbonylamino-1H-benzoimidazol-5-yl ester], the IC50 in assay [1] amounted to 1500 nM.

Compound `COC(=O)Nc1nc2cc(OS(=O)(=O)c3ccccc3OC(F)(F)F)ccc2[nH]1` [Example 62-g, 2-Trifluoromethoxy-benzenesulfonic acid 2-methoxycarbonylamino-1H-benzoimidazol-5-yl ester] came in with a concentration for half-maximal inhibition (IC50) in assay [1] of 1000 nM. For the compound `COC(=O)Nc1nc2cc(OS(=O)(=O)c3ccsc3C(=O)OC)ccc2[nH]1` [Example 62-j, 3-(2-Methoxycarbonylamino-1H-benzoimidazol-5-yloxysulfonyl)-thiophene-2-carboxylic acid methyl ester], in assay [1], the IC50 amounted to 1500 nM. Compound `COC(=O)Nc1nc2cc(OS(=O)(=O)c3ccc(OCC(=O)N4CCCC4)cc3)ccc2[nH]1` [Example 65, 4-(2-oxo-2-pyrrolidin-1-yl-ethoxy)-benzenesulfonic acid 2-methoxycarbonylamino-1H-benzoimidazol-5-yl-ester] returned an IC50 in assay [1] of 1000 nM. Compared with the last compound, the IC50 is about 1.5-fold lower. Still for that read-out and setting: to `COC(=O)Nc1nc2cc(OS(=O)(=O)c3ccc(OCC(=O)NCc4ccco4)cc3)ccc2[nH]1` [Example 66-c, 4-{[(furan-2-ylmethyl)-carbamoyl]-methoxy}-benzenesulfonic acid 2-methoxycarbonylamino-1H-benzoimidazol-5-yl ester] belongs 1000 nM; to `COc1cc(Nc2nc3cc(OS(=O)(=O)c4ccc(NC5CCCC5)cc4)ccc3[nH]2)cc(C(F)(F)F)c1` [Example 70-f, 4-Cyclopentylamino-benzenesulfonic acid 2-(3-methoxy-5-trifluoromethyl-phenylamino)-1H-benzoimidazol-5-yl ester], 5000 nM; to `CCOC(=O)c1cccc(Nc2nc3cc(OS(=O)(=O)c4ccc(NC5CCCC5)cc4)ccc3[nH]2)c1` [Example 70-g, 3-[5-(4-Cyclopentylamino-benzenesulfonyloxy)-1H-benzoimidazol-2-ylamino]-benzoic acid ethyl ester], 1500 nM. As a reminder, the inhibition is the drop in the measured response relative to a control, in per cent. For `COCCNC(=O)Nc1nc2cc(OS(=O)(=O)c3ccc(NC(C)CO)cc3)ccc2[nH]1` (stereo not shown) [Example 78-k, 4-(2-Hydroxy-1-methyl-ethylamino)-benzenesulfonic acid 2-[3-(2-methoxy-ethyl)-ureido]-1H-benzoimidazol-5-yl ester], the inhibition at 10 µM in assay [2] was 78%.

Take `CCNC(=O)Nc1nc2cc(OS(=O)(=O)c3ccc(NC(C)CO)cc3)ccc2[nH]1` (stereo not shown) [Example 78-l, 4-(2-Hydroxy-1-methyl-ethylamino)-benzenesulfonic acid 2-[3-(2-ethyl)-ureido]-1H-benzoimidazol-5-yl ester]: in assay [2], the inhibition at 10 µM came to 100%. Consider `O=C(NCc1ccccn1)Nc1nc2cc(OS(=O)(=O)c3ccc(OCc4ccccc4)cc3)ccc2[nH]1` [Example 78-n], for which the “inhibition of CDK4/cyclinD1 at 10 μM” value in assay [2] was 54% inhibition at 10 μM. Consider `COCCNC(=O)Nc1nc2cc(OS(=O)(=O)c3ccc(OCc4ccccc4)cc3)ccc2[nH]1` [Example 78-o, 4-Benzyloxy-benzenesulfonic acid 2-[3-(2-methoxy-ethyl)-ureido]-1H-benzoimidazol-5-yl ester], for which the inhibition at 10 µM in assay [2] stood at 54%. In the case of `COCCNC(=O)Nc1nc2cc(OS(=O)(=O)c3ccc(NCCN4CCOCC4)cc3)ccc2[nH]1` [Example 78-s, 4-(2-Morpholin-4-yl-ethylamino)-benzenesulfonic acid 2-[3-(2-methoxy-ethyl)-ureido]-1H-benzoimidazol-5-yl ester], the inhibition at 10 µM in assay [2] turned out to be 88%. Regarding `O=C(NCCN1CCOCC1)Nc1nc2cc(OS(=O)(=O)c3ccc(NCC4CCNCC4)cc3)ccc2[nH]1` [Example 78-t, 4-[(Piperidin-4-ylmethyl)-amino)-benzenesulfonic acid 2-[3-(2-morpholin-4-yl-ethyl)-ureido]-1H-benzoimidazol-5-yl ester], the inhibition at 10 µM in assay [2] came out at 55%.

For the compound `O=C(NCc1ccccn1)Nc1nc2cc(OS(=O)(=O)c3ccc(NCC4CCNCC4)cc3)ccc2[nH]1` [Example 78-u], the “inhibition of CDK4/cyclinD1 at 10 μM” value in assay [2] was 93% inhibition at 10 μM.

As to `COCCNC(=O)Nc1nc2cc(OS(=O)(=O)c3ccc(NCC4CCNCC4)cc3)ccc2[nH]1` [Example 78-v, 4-[(Piperidin-4-ylmethyl)-amino]-benzenesulfonic acid 2-[3-(2-methoxy-ethyl)-ureido]-1H-benzoimidazol-5-yl ester], the inhibition at 10 µM in assay [2] worked out at 46%. On to `O=C(NCCN1CCOCC1)Nc1nc2cc(OS(=O)(=O)c3ccc(NCc4ccccc4)cc3)ccc2[nH]1` [Example 78-w, 4-Benzylamino-benzenesulfonic acid 2-[3-(2-morpholin-4-yl-ethyl)-ureido]-1H-benzoimidazol-5-yl ester], for which the inhibition at 10 µM in assay [2] came out at 90%. The same measure, in the same setting: to `O=C(NCCF)Nc1nc2ccc(OS(=O)(=O)c3ccc(NCCF)cc3)cc2[nH]1` [Example 80-c, 4-(2-Fluoro-ethylamino)-benzenesulfonic acid 2-[3-(2-fluoro-ethyl)-ureido]-3H-benzoimidazol-5-yl ester] belongs 100%; to `COCC(O)CNC(=O)Nc1nc2ccc(OS(=O)(=O)c3ccc(NCC(O)COC)cc3)cc2[nH]1` (stereo not shown) [Example 80-m, 4-(2-Hydroxy-3-methoxy-propylamino)-benzenesulfonic acid 2-[3-(2-hydroxy-3-methoxy-propyl)-ureido]-3H-benzoimidazol-5-yl ester], 103%; to `O=C(NCCN1CCOCC1)Nc1nc2ccc(OS(=O)(=O)c3ccc(NCc4ccccn4)cc3)cc2[nH]1` [Example 82-h, 4-[(Pyridin-2-ylmethyl)-amino]-benzene sulfonic acid 2-[3-(2-morpholin-4-yl-ethyl)-ureido]-3H-benzimidazol-5-yl ester], 92%.

These data come from US20050014811A1, “Substituted benzimidazole compounds and their use for the treatment of cancer” (Aventis Pharma S.A., priority 2001, published 2005).
